The test system of series [1] is influenza virus A/H3N2, strain Hong Kong 68. Description: Antiviral activity against influenza virus A/H3N2, strain Hong Kong 68 (crystal violet uptake assay in MDCK cells). It is filed as cell-based. As to conditions: for IC50: read-out: IC50 (μM) Against A/Hong Kong/68; for pIC50: Table 4, against A/Hong Kong/68, QSAR numbering, read-out: IC50; for Active: experimental class, active if IC50 < 30 μM. The procedure: The synthesized compounds were tested for antiviral activity against the influenza virus A/H3N2, strain Hong Kong 68.
In order to identify new potential antiviral drugs, small amounts of extracts or compounds have to be examined for cytotoxicity and antiviral activity in primary screening using a rapid, easy, inexpensive and highly standardized test system. The cytotoxic and the antiviral effects were quantified using a crystal violet uptake assay allowing automated handling of large numbers of candidate agents. […] Madin-Darby Kanine Kidney Cells (MDCK) cells were seeded at 2 × 10^4 cells per well in 96-well flat-bottomed microtiter plates (Falcon 3075). The cytotoxicity of the test compounds was determined on 2-day-old confluent MDCK cell monolayers grown in the internal 60 wells (5% CO2, 37 °C). After removal of the growth medium, two-fold dilutions of the compounds in 100 µL test medium were added and incubated at 37 °C in a 5% CO2 atmosphere for 72 h. Cells in six wells without compound treatment served as basic controls. The Dynex Immuno Assay System (DIAS, Guernsey, UK) developed for automated ELISA techniques was applied to wash gently, stain, measure and analyze the viability of the cell monolayers in cytotoxic, as well as antiviral assays. The staining procedure undertaken with crystal violet was based on the principles described by Nain et al. for the determination of the cytotoxic activity of TNF-α [20]. At first, the supernatant was aspirated and the cell monolayers were washed three times with […] physiological sodium chloride solution to remove dead cells. Secondly, the cells were fixed and stained in one step with 50 µL of 0.03% crystal violet (w/v) in 20% methanol for 10 min. […] Then the optical density of individual wells was quantified spectrophotometrically at 540/630 nm and analyzed with the DIAS. Cell viability was evaluated as the percentage of the mean value of optical density, resulting from the six cell controls, which was set 100%. The 50% cytotoxic concentrations (CC50) were calculated from the mean dose–response curves of three assays each with two parallels.
To exclude non-specific antiviral activities of test compounds, their cytotoxic effects have to be determined not only on confluent cell monolayers but also on proliferating cell cultures in the primary antiviral screening. The cytotoxicity and the growth inhibition of compounds were quantified using an automated crystal violet staining procedure and the electronic cell analyzer system CASY 1, respectively, on day 3 after compound application. The 50% cytotoxic and growth inhibition concentrations were calculated from the mean dose–response curve (3.9 through 1000 µg mL^−1; dilution factor 2) of three separate experiments each with two parallels in the indicated cell lines.

The subject of series [2] is MDCK cells. As to conditions: for HNTC (μM) MDCK Cells: high-nontoxic concentration; for CC50: read-out: CC50 (μM) MDCK Cells, 50% cytotoxic concentration, confluent MDCK monolayers, 72 h.
The nature of series [3]: in vitro. As to conditions: dog.
Series [4] is described as follows: in vitro. It counts as in vitro ADME. As to conditions: human, plasma. The procedure:
The separation of glycyl-rimantadine (4b) and Ala-rimantadine (4a) (internal standard, IS) was performed on an ultra-high-performance liquid chromatography (UHPLC) system (Bruker Daltonics, Germany), utilizing an RP Kinetex C18 column 100 mm × 2.1 mm, 2.6 μm, with a proguard column 2.1 mm (Phenomenex, USA). The mobile phase was composed of formic acid 0.1% in water (A) and acetonitrile (B). Gradient elution was chosen for the analysis, at a constant flow rate of 0.25 mL min^−1 and the following gradient profile: initial phase (B) concentration of 5% until 0.3 min, then increased to 80% within 1.2 min, kept constant for 1 min at 80% and then reduced to 5% at 2.6 min, until the end of the run at 4 min. The temperature in the autosampler and the column oven was maintained at 15 °C and 40 °C, respectively. The sample injection volume was set to 5 μL.
The EVOQ Elite ER (Bruker Daltonics, Germany) triple quadrupole mass spectrometer was operated in positive ionization electrospray mode (ESI) in multiple reaction monitoring (MRM) for the detection of glycyl-rimantadine (4b) and IS. The optimal MRM transitions for monitoring the analytes were determined and set as follows: m/z 237.1 → 163.2, 237.1 → 75.5 and 237.1 → 81.4 for glycyl-rimantadine and 251.1 → 163.2, 251.1 → 89.4 and 251.1 → 180.2 for the IS. The optimum ESI parameters were determined and set as follows: spray voltage at 4500 V; heated probe gas flow at 50 units; heated probe temperature at 150 °C; cone gas flow at 20 units; cone temperature at 300 °C and nebulizer gas flow at 50 units. The control of the LC and the MS, as well as the data acquisition, was performed using the MSWS software, version 8.2.1 (Bruker Datonics, Germany). […]
The in vitro plasma stability of glycyl-rimantadine (4b) was conducted by LC–MS/MS. […] The glycyl-rimantadine (4b) concentration was calculated via the standard calibration curve that was designed by plotting the area of the conjugate versus the IS area against the nominal concentration of the calibration standards. […]

pIC50: −log10 of the molar value. Where two headings read alike, the source gives them in different places.

By pIC50 is commonly meant the IC50 on a negative log10 scale, so that one unit is a factor of ten. As to `NC(Cc1ccc(F)cc1)C(=O)NC12CC3CC(CC(C3)C1)C2` (stereo not shown) [Compound 5g, (4-F)-phenylalanyl-amantadine], the IC50 in series [1] (Influenza A virus, H3N2, MDCK) is 0.81 µM. The pIC50 in series [1] (MDCK) is 6.09. Besides, the Active entry in series [1] is given as “Yes (Active compound only if IC50 < 30 μM)”. The “HNTC (μM) MDCK Cells” value in series [2] came to 15.35 µM. This compound also displayed a CC50 in series [3] of 83.6 µM.
For `CC(C)C(N)C(=O)NC12CC3CC(CC(C3)C1)C2` (stereo not shown) [Compound 5h, Val-Amantadine] the same measures were 1.32 µM, 5.88, “Yes (Active compound only if IC50 < 30 μM)”, above 100 µM and above 100 µM.
Consider `CC(NC(=O)CCNC(=N)N)C12CC3CC(CC(C3)C1)C2` (stereo not drawn) [Compound 6i, Gua-β-Ala-Rim], for which, in series [2], the “HNTC (μM) MDCK Cells” value is above 100 µM and the CC50 is above 100 µM.
As a reminder, the fraction remaining is what is left of the initial amount, in per cent. A high value points to greater stability. In the case of `CC(NC(=O)CN)C12CC3CC(CC(C3)C1)C2` (stereo not shown) [Compound 4b, glycyl-rimantadine], in series [1] (Influenza A virus, H3N2, MDCK), the IC50 came out at 0.11 µM. In series [4], this compound came in with a fraction remaining at 6 h, 1.58 µg/mL of 97.5%; an amount remaining at 12 h, 1.58 µg/mL of around 91%; an amount remaining at 24 h, 1.58 µg/mL of 83.7%. Further, in series [2], the “HNTC (μM) MDCK Cells” value was 13.89 µM. The compound further registered a CC50 in series [3] above 100 µM.
Take `CC(NC(=O)[C@H](Cc1ccc(O)cc1)NC(=N)N)C12CC3CC(CC(C3)C1)C2` (stereo partly drawn) [Compound 6j, Gua-Tyr-Rim]: in series [1] (influenza A/H3N2 Hong Kong/68), the IC50 came to 8.19 µM. Further, in series [2], the “HNTC (μM) MDCK Cells” value is 36.69 µM and the CC50 was above 100 µM.
On to `C[C@H](NC(=N)N)C(=O)NC12CC3CC(CC(C3)C1)C2` [Compound 7a, Gua-Ala-Am], for which, in series [1], the pIC50 is 4.74 and the Active entry was “Yes (Active compound only if IC50 < 30 μM)”. Moreover, the IC50 in series [1] (influenza A/H3N2 Hong Kong/68) was determined as 18.4 µM. In series [2], the “HNTC (μM) MDCK Cells” value is above 100 µM and the CC50 was above 100 µM.
For the compound `NC12CC3CC(CC(C3)C1)C2` [Amantadine, reference compound], the IC50 in series [1] (Influenza A virus, H3N2, MDCK) stood at 0.39 µM. Besides, the pIC50 in series [1] (MDCK) was 6.41. For the same compound, in series [1], the Active entry is reported as “Yes (Active compound only if IC50 < 30 μM)”. In series [3], this compound returned a CC50 above 100 µM.
Turning to `NC(Cc1ccccc1)C(=O)NC12CC3CC(CC(C3)C1)C2` (stereo not shown) [Compound 5e, phenylalanyl-amantadine], the IC50 in series [1] (Influenza A virus, H3N2, MDCK) turned out to be 0.75 µM. Further, the negative-log IC50 (pIC50) in series [1] (MDCK) is 6.12. Further, the Active result in series [1] was “Yes (Active compound only if IC50 < 30 μM)”. Moreover, the “HNTC (μM) MDCK Cells” value in series [2] came out at 15.1 µM. This compound also yielded a CC50 in series [3] of 89.4 µM.
With `CC(C)CC(N)C(=O)NC(C)C12CC3CC(CC(C3)C1)C2` (stereo not shown) [Compound 4d, Leu-Rim], the IC50 in series [1] (Influenza A virus, H3N2, MDCK) is 0.75 µM. Also, the “HNTC (μM) MDCK Cells” value in series [2] was 11.66 µM. Besides, the CC50 in series [3] was above 100 µM.
As to `CC(NC(=O)[C@H](N)Cc1ccc(F)cc1)C12CC3CC(CC(C3)C1)C2` (stereo partly drawn) [Compound 4f, (4-F)-D-Phe-Rim], the “HNTC (μM) MDCK Cells” value in series [2] worked out at 6.23 µM. This compound also showed a CC50 in series [3] of 19.9 µM.
For `CCC(C)C(N)C(=O)NC(C)C12CC3CC(CC(C3)C1)C2` (stereo not shown) [Compound 4c, Ile-Rim] the same measures were 5.33 µM and 58.4 µM.
For `CC(N)C(=O)NC12CC3CC(CC(C3)C1)C2` (stereo not shown) [Compound 5a, Ala-Amantadine], in series [1] (Influenza A virus, H3N2, MDCK), the IC50 turned out to be 1.41 µM. In series [1] (MDCK), the pIC50 was 5.85. For the same compound, the Active result in series [1] is “Yes (Active compound only if IC50 < 30 μM)”. For the same compound, in series [2], the “HNTC (μM) MDCK Cells” value was above 100 µM. The same compound registered a CC50 in series [3] above 100 µM.
For the compound `CCOC(=O)C1=C[C@@H](OC(CC)CC)[C@H](NC(C)=O)[C@@H](N)C1` [Oseltamivir, reference compound], the IC50 in series [1] (Influenza A virus, H3N2, MDCK) was 0.002 µM. Further, in series [2], the “HNTC (μM) MDCK Cells” value was above 100 µM. In series [3], the CC50 was above 100 µM.
As for `CC(C)[C@H](NC(=N)N)C(=O)NC12CC3CC(CC(C3)C1)C2` [Compound 7h, Gua-Val-Am], in series [1], the pIC50 was 4.77 and the Active entry was “Yes (Active compound only if IC50 < 30 μM)”. Moreover, the IC50 in series [1] (influenza A/H3N2 Hong Kong/68) was 17.1 µM. For the same compound, in series [2], the “HNTC (μM) MDCK Cells” value is above 100 µM and the CC50 is above 100 µM.
For the compound `CC(NC(=O)C(N)Cc1ccc(O)cc1)C12CC3CC(CC(C3)C1)C2` (stereo not shown) [Compound 4j, Tyr-Rimantadine], the IC50 in series [1] (Influenza A virus, H3N2, MDCK) was 0.52 µM. Moreover, in series [2], the “HNTC (μM) MDCK Cells” value was found to be 9.97 µM. Also, the CC50 in series [3] was above 100 µM.
For `CC(NC(=O)CCN)C12CC3CC(CC(C3)C1)C2` (stereo not drawn) [Compound 4i, β-Ala-Rimantadine] the same measures were 15.7 µM, 20.78 µM and above 100 µM.
For `CC(NC(=O)C(N)Cc1ccc(F)cc1)C12CC3CC(CC(C3)C1)C2` (stereo not shown) [Compound 4g, (4-F)-Phe-Rim], the “HNTC (μM) MDCK Cells” value in series [2] stood at 4.37 µM. Besides, in series [3], the CC50 turned out to be 15.5 µM.
`CC(NC(=O)[C@H](C)NC(=N)N)C12CC3CC(CC(C3)C1)C2` (stereo partly drawn) [Compound 6a, Gua-Ala-Rim]: in series [1] (influenza A/H3N2 Hong Kong/68), the IC50 turned out to be 41.9 µM. Besides, in series [2], the “HNTC (μM) MDCK Cells” value was above 100 µM and the CC50 is above 100 µM.
`CC(C)C(N)C(=O)NC(C)C12CC3CC(CC(C3)C1)C2` (stereo not shown) [Compound 4h, Val-Rim]: the “HNTC (μM) MDCK Cells” value in series [2] was determined as 10.2 µM. This compound displayed a CC50 in series [3] of 70.3 µM.
Take `CC(NC(=O)C(N)Cc1ccccc1)C12CC3CC(CC(C3)C1)C2` (stereo not shown) [Compound 4e, Phe-Rim]: the “HNTC (μM) MDCK Cells” value in series [2] stood at 4.75 µM. For the same compound, the CC50 in series [3] came out at 21.9 µM.
In the case of `CC(N)C(=O)NC(C)C12CC3CC(CC(C3)C1)C2` (stereo not shown) [Compound 4a, Ala-Rimantadine], the IC50 in series [1] (Influenza A virus, H3N2, MDCK) turned out to be 1.53 µM. Also, the “HNTC (μM) MDCK Cells” value in series [2] was 14.65 µM. In addition, the CC50 in series [3] was above 100 µM.
